Data taken from patent publication US10441669B2, “Multifunctional chelators, complexes, and compositions thereof, and methods of using same” (ILLINOIS INSTITUTE OF TECHNOLOGY, priority 2013, dated 2019).
Like-named read-outs stand apart in the source and are kept apart here. Values belong to the compound of their own block, whether it stands above or below them.

What was measured:
[1] = In vitro serum stability of 177Lu-radiolabeled 3p-C complexes; format: in vitro ADME; conditions: human serum, 37° C., in 72 h
Method: (§1) A significant amount of the radioactivity from both ^90Y-3p-C-DEPA (4) and ^177Lu-3p-C-DEPA (4) was transchelated to serum (25% and 40% in 72 h, respectively). As expected, both ^90Y and ^177Lu complexes of 3p-C-NOTA […] were not stable in serum, and ˜80% of ^90Y and ˜36% of ^177Lu was released from the complexes on day 7. […] However, ^90Y-3p-C-NE3TA underwent rapid dissociation, losing ˜25% of ^90Y to serum in 3 days.
(§2) Human serum was purchased from Gemini Bioproducts (#100110). ^90Y- or ^177Lu-radiolabeled complexes (0.25M NH40OAc, pH 5.5) were prepared from the reaction of chelators with ^90Y or ^177Lu at room temperature or 37° C. Completion of radiolabeling was monitored by ITLC eluted, and the freshly prepared radiolabeled complexes were used for serum stability without further purification. ^90Y-3p-C-DETA, ^90Y-3p-C-NE3TA and ^90Y-3-C-NOTA were prepared by a reaction of 3p-C-DETA (1), 3p-C-NE3TA (2) and 3p-C-NOTA (3) (50 μg) with ^90Y (150 μCi) in 0.25 M NH4OAc buffer (pH 7.0). […] The stability of the radiolabeled complexes in human serum was evaluated at 37° C. over 14 days. The serum stability of the radiolabeled complexes was assessed by measuring the transfer of the radionuclide from each complex to serum proteins using ITLC eluted with CH3CN/H2O (3:2 v/v) or 20 mM EDTA in 0.15 M NH4OAc. […]

[2] = In vitro serum stability of 90Y-radiolabeled 3p-C complexes; format: in vitro ADME; conditions: human serum, 37° C., in 72 h (3 days)
Method: as §1, §2

[3] = Stability and radioactivity level of 64Cu complexes in mice; format: in vivo; conditions: 64Cu complex
[4] = EDTA challenge of 64Cu-radiolabeled complexes of chelators A-F; format: physicochemical; conditions: EDTA 100-fold molar excess; for Bound complex (%): 64Cu complex, 37° C.
Method: ^64Cu-radiolabeled complexes were further evaluated for complex stability based on EDTA challenge. ^64Cu-radiolabeled complexes were freshly prepared and treated with a solution of EDTA at a 100-fold molar excess, and the resulting solution (pH 5.5) was incubated at 37° C. for 24 h. […] Among the complexes tested, ^64Cu-radiolabeled pentadentate chelator B was least tolerant of EDTA treated, and most of ^64Cu was dissociated from the complex (˜80%) at 24 h time point. ^64Cu-radiolabeled chelator C containing the carbonyl donor group was found dissociated rapidly in the presence of the excess EDTA, and 50% of the activity was transchelated by EDTA at 1 h time point. ^64Cu-radiolabeled chelators D and F with the respective hydroxyl and thiophenyl donor group were slower in dissociation than ^64Cu-radiolabeled chelators B and C and released >45% of ^64Cu at 24 h time point. Dissociation of the activity from the ^64Cu-radiolabeled chelators was also measured using radio-HPLC at 25 h time point (FIG. 5). The peak related to ^64Cu-EDTA (tR=2.5 min) was clearly separated from bound ^64Cu complex of the chelators. ^64Cu-radiolabeled complex of polar chelators E and F have the respective retention time at […] and 6.2 min, while other ^64Cu-radiolabeled complexes have similar retention time (tR=7˜8 min). The ^64Cu-radiolabeled chelators C and D gave a small peak (tR=˜3 min and tR=˜7 min, respectively).
^64Cu-radiolabeled complexes were prepared by reaction of each chelator (20 μg) with ^64Cu (60 μCi) in 0.25M NH4OAc buffer (pH 5.5) for 2 h at room temperature. The radiolabeled complexes were prepared as described above and directly used for the experiments. ^64Cu-radiolabeled complex was mixed with EDTA at a 100-fold molar excess. The resulting mixture was incubated for 24 h at 37° C. The stability of ^64Cu-radiolabeled complexes in the solution was evaluated using ITLC (20 mM EDTA in 0.15M NH4OAc). A solution of the radiolabeled complex in serum (3˜20 μL) was withdrawn at the designated time points and evaluated by ITLC as described above. Stability of the complexes was also evaluated at 25 h time point by HPLC (solvent A: 0.1% TFA in H2O, solvent B: 0.1% TFA in CH3CN, 0-100% B/15 min, flow rate: 1 mL/min). ^64Cu-EDTA complex was eluted early (tR=˜2.5 min), while ^64Cu-radiolabeled complexes of chelators A-D, E, and F have the respective retention time (tR=7˜8 min, tR=4.6 min, and tR=6.2 min).

[5] = In vitro serum stability of 64Cu-radiolabeled complexes of chelators A-F; format: in vitro ADME; conditions: human serum, over 2 days; listed as 64Cu-chelator E
Method: In vitro serum stability of the radiolabeled complexes was performed to determine if the chelators radiolabeled with ^64Cu remained stable without loss of the radioactivity in human serum. This was assessed by measuring the transfer of ^64Cu from the complex to human serum proteins using ITLC (20 mM EDTA in 0.15M NH4OAc, Table 2). ^64Cu-radiolabeled chelators were readily prepared from the reactions of the chelators with ^64Cu at room temperature. Essentially no unbound ^64Cu was detected in the reaction mixture at 2 h time point after the reaction at room temperature as determined by ITLC. The ^64Cu-radiolabeled chelators were directly used for serum stability studies (pH 7, 37° C.) without further purification. All ^64Cu-radiolabeled complexes remained intact in human serum for 2 days as evidenced by ITLC analysis (Supporting Information). […] A tiny amount of ^64Cu (<0.3%) was detected from other ^64Cu-complexes of chelators B, D-F.
The freshly prepared radiolabeled complexes were directly used for serum stability studies without further purification. ^64Cu-radiolabeled complex (85 μCi, 10 μL) was added to human serum (90 μL) in a microcentrifuge tube. The stability of ^64Cu-radiolabeled complexes in human serum was evaluated at 37° C. for 2 days. A solution of the radiolabeled complex in serum was withdrawn at the designated time points and evaluated by ITLC as described above.

[6] = pH 7
Method: (§3) In vitro serum stability of 5p-C-NETA and NETA-RGD conjugates radiolabeled with ^90Y or ^177Lu was performed to determine if NETA chelators or NETA-RGD conjugates radiolabeled with ^90Y or ^177Lu remained stable without loss of ^90Y or ^177Lu in human serum. This was assessed by measuring the transfer of ^90Y or ^177Lu from the complex to serum proteins over the course of 14 days using ITLC. ^90Y or ^177Lu-radiolabeled complexes was prepared from the reactions of the bifunctional chelators with ^90Y or ^177Lu at room temperature and directly used for serum stability studies (37° C., pH 7).

[7] = pH 7; remark: listed apart in the source
Method: as §3

[8] = design: species or system mice; conditions: mouse, in vivo
[9] = In vitro serum stability of 177Lu-radiolabeled 5p-C-NETA and NETA-RGD; conditions: 37° C., pH 7, 14 days, ITLC
Method: as §3

[10] = In vitro serum stability of 90Y-radiolabeled 5p-C-NETA and NETA-RGD; conditions: 37° C., pH 7, 14 days, ITLC
Method: as §3

177Lu transchelated to serum [1]: 40% | 90Y transchelated/lost to serum [2]: 25%
SMILES: O=C(O)CN1CCN(CC(=O)O)CCN(CC(CCCc2ccc([N+](=O)[O-])cc2)N(CC(=O)O)CC(=O)O)CCN(CC(=O)O)CC1 (stereo not shown) [Chelator 3p-C-DEPA]

Bound complex (%) ([4]; pH 5.5, ITLC, 0 h): 99.7 ± 0.1% | Bound complex (%) ([4]; pH 5.5, ITLC, 1 h): 98.2 ± 0.3% | Bound complex (%) ([4]; pH 5.5, ITLC, 4 h): 92.6 ± 0.3% | Bound complex (%) ([4]; pH 5.5, ITLC, 19 h): 93.6 ± 0.1% | Bound complex (%) ([4]; pH 5.5, ITLC, 24 h): 94.3 ± 0.6% | Bound complex (%) ([4]; pH 5.5, radio-HPLC, 25 h): 93.1 ± 0.1% | 64Cu activity dissociated from the complex / transferred to EDTA ([4]; 24 h time point): ~5% | 64Cu dissociated/released from the complex in serum [5]: No measurable radioactivity was released
SMILES: O=C(O)CN1CCN(CC(=O)O)CCN(Cc2ccccn2)CC1 [Chelator E, 2-[4-(carboxymethyl)-7-(pyridin-2-ylmethyl)-1,4,7-triazonan-1-yl]acetic acid]
stability in mice and radioactivity level in blood and normal organs [3]: stable in mice and displayed low radioactivity level in the blood and the normal organs

SMILES: N=C(N)NCCC[C@@H]1NC(=O)[C@H](CCCCNC(=S)Nc2ccc(CCCCCC(CN3CCN(CC(=O)O)CCN(CC(=O)O)CC3)N(CC(=O)O)CC(=O)O)cc2)NC(=O)[C@@H](Cc2ccc(O)cc2)NC(=O)[C@H](CC(=O)O)NC(=O)CNC1=O (stereo partly shown) [5p-C-NETA-RGD]
stability of 177Lu complex in human serum [6]: remained quite stable in human serum over 2 weeks period | stability of 90Y complex in human serum [7]: remained quite stable in human serum over 2 weeks period | tumor targeting and biodistribution profile [8]: target tumors in mice and produced a favorable biodistribution profile with rapid blood clearance and low organ uptake

SMILES: O=C(O)CN1CCN(CC(=O)O)CCN(CC(CCCCCc2ccc([N+](=O)[O-])cc2)N(CC(=O)O)CC(=O)O)CC1 (stereo not shown) [Chelator 5p-C-NETA, 2-({1-[4,7-bis(carboxymethyl)-1,4,7-triazonan-1-yl]-7-(4-nitrophenyl)heptan-2-yl}(carboxy-methyl)amino)acetic acid]
stability of 177Lu complex in human serum [9]: remained stable in human serum without releasing the radioactivity into the serum | stability of 90Y complex in human serum [10]: remained stable in human serum without releasing the radioactivity into the serum
